# Article PMC8305571 (2021)
# Key:
# [1] = tested on: Scle (DNA, G4) TGGGGGGGTGGGTGGGT; experiment: CD melting, 264 nm; settings: 50 mM KCl; mBR buffer, pH 7.0; derived from two Tm (81.5, >100); indicative values
# [2] = tested on: HTR (DNA, G4) GGGTTAGGGTTAGGGTTAGGG; experiment: CD melting, 294 nm; settings: 50 mM KCl; mBR buffer, pH 7.0; derived from two Tm (63.5, 64.0); indicative values
# [3] = tested on: TBA (DNA, G4) GGTTGGTGTGGTTGG; experiment: CD melting, 294 nm; settings: 50 mM KCl; mBR buffer, pH 7.0; derived from two Tm (46.5, 48.5); indicative values
# [4] = tested on: Hema (DNA, G4) GGGGTCGGGCGGGCCGGGTG; experiment: CD melting, 264 nm; settings: 50 mM KCl; mBR buffer, pH 7.0; derived from two Tm (72.0, 86.0); indicative values
# [5] = tested on: STAT (DNA, G4) GGGCGGGCGGGCGGG; experiment: CD melting, 264 nm; settings: mBR buffer, pH 7.0, indicative values
# [6] = tested on: ionK (DNA, G4) GGGTTAGGGTTAGGGTAGGG; experiment: CD melting, 294 nm; settings: 50 mM KCl; mBR buffer, pH 7.0; derived from two Tm (59.1, 58.0); indicative values
# [7] = tested on: VEGF (DNA, G4) GGGGCGGGCCGGGGGCGGG; experiment: CD melting, 264 nm; settings: mBR buffer, pH 7.0, indicative values
# [8] = tested on: TFO1 (DNA, triplex) AAAAAAAACCCCTTTTTTTTCCCCTTTTTTTT; experiment: CD melting, 282 nm; settings: no added salt; mBR buffer, pH 7.0; derived from two Tm (20.4, 17.7); indicative values
# [9] = tested on: G3A (DNA, G4) GGGAGGGAGGGAGGGA; experiment: CD titration, PAGE; settings: 50 mM NaCl or KCl; mBR buffer, pH 7.0; up to 260 µM RhG (CD), 130 µM (PAGE)
# [10] = tested on: G3C (DNA, G4) GGGCGGGCGGGCGGGC; experiment: CD titration, PAGE; settings: 50 mM NaCl or KCl; mBR buffer, pH 7.0; up to 260 µM RhG (CD), 130 µM (PAGE)
# [11] = tested on: HTR (DNA, G4) GGGTTAGGGTTAGGGTTAGGG; experiment: CD melting, 294 nm; settings: 50 mM NaCl; 25 mM mBR buffer, pH 7.0; ligand concentration not given; indicative value
# [12] = tested on: Scle (DNA, G4) TGGGGGGGTGGGTGGGT; experiment: CD melting, 264 nm; settings: 50 mM NaCl; 25 mM mBR buffer, pH 7.0; ligand concentration not given; indicative value
# [13] = tested on: TBA (DNA, G4) GGTTGGTGTGGTTGG; experiment: CD melting, 294 nm; settings: 50 mM NaCl; 25 mM mBR buffer, pH 7.0; ligand concentration not given; indicative value
# [14] = tested on: Hema (DNA, G4) GGGGTCGGGCGGGCCGGGTG; experiment: CD melting, 264 nm; settings: 50 mM NaCl; 25 mM mBR buffer, pH 7.0; ligand concentration not given; indicative value
# [15] = tested on: ionK (DNA, G4) GGGTTAGGGTTAGGGTAGGG; experiment: CD melting, 294 nm; settings: 50 mM NaCl; 25 mM mBR buffer, pH 7.0; ligand concentration not given; indicative value
# [16] = tested on: Scle (DNA, G4) TGGGGGGGTGGGTGGGT; experiment: induced CD and UV-Vis titration; settings: 50 mM KCl; mRB buffer, pH 7.0; 130 µM RhG, DNA up to 27 µM
# [17] = tested on: HTR (DNA, G4) GGGTTAGGGTTAGGGTTAGGG; experiment: temperature gradient gel electrophoresis (TGGE); settings: 2.5 mM KCl; 25 mM mBR buffer, pH 7.0; 260 µM RhG in gel; antiparallel form; parallel form >62 ± 2 °C with RhG
smiles,measurement,setting,value
CCN=c1cc2oc3cc(NCC)c(C)cc3c(-c3ccccc3C(=O)OCC)c-2cc1C,ΔTm (Tm shift),[1],> 18.5 °C
same,ΔTm (Tm shift),[2],0.5 °C
same,ΔTm (Tm shift),[3],2.0 °C
same,ΔTm (Tm shift),[4],14.0 °C
same,ΔTm (RhG minus no ligand),"[5]; 50 mM KCl, derived from two Tm (92.8, >100)",> 7.2 °C
same,ΔTm (RhG minus no ligand),"[5]; 50 mM NaCl, derived from two Tm (54.5, 76.5)",22.0 °C
same,ΔTm (RhG minus no ligand),[6],-1.1 °C
same,ΔTm (RhG minus no ligand),"[7]; 50 mM KCl, derived from two Tm (85.6, 87.9)",2.3 °C
same,ΔTm (RhG minus no ligand),"[7]; 50 mM NaCl, derived from two Tm (47.5, 82.0)",34.5 °C
same,ΔTm (Tm shift),[8],-2.7 °C
same,binding,[9],yes
same,binding,[10],yes
same,Tm,[11],52.0 (no ligand 52.0) °C
same,Tm,[12],77.0 (no ligand 62.0) °C
same,Tm,[13],26.8 (no ligand 20.0) °C
same,Tm,[14],54.3 (no ligand ND) °C
same,Tm,[15],48.5 (no ligand 46.2) °C
same,binding,[16],yes
same,Tm,[17],50.6 (no ligand 46.5) °C
